The target in this assay is T1, human mGlu 5a receptor (Homo sapiens, UniProt P41594).
T1 construct: expressed in transfected cells; host or cells: EBNA cells (transient transfection), cell membrane homogenates
T1 sequence (P41594 21-1180 isoform P41594-2 limits assumed): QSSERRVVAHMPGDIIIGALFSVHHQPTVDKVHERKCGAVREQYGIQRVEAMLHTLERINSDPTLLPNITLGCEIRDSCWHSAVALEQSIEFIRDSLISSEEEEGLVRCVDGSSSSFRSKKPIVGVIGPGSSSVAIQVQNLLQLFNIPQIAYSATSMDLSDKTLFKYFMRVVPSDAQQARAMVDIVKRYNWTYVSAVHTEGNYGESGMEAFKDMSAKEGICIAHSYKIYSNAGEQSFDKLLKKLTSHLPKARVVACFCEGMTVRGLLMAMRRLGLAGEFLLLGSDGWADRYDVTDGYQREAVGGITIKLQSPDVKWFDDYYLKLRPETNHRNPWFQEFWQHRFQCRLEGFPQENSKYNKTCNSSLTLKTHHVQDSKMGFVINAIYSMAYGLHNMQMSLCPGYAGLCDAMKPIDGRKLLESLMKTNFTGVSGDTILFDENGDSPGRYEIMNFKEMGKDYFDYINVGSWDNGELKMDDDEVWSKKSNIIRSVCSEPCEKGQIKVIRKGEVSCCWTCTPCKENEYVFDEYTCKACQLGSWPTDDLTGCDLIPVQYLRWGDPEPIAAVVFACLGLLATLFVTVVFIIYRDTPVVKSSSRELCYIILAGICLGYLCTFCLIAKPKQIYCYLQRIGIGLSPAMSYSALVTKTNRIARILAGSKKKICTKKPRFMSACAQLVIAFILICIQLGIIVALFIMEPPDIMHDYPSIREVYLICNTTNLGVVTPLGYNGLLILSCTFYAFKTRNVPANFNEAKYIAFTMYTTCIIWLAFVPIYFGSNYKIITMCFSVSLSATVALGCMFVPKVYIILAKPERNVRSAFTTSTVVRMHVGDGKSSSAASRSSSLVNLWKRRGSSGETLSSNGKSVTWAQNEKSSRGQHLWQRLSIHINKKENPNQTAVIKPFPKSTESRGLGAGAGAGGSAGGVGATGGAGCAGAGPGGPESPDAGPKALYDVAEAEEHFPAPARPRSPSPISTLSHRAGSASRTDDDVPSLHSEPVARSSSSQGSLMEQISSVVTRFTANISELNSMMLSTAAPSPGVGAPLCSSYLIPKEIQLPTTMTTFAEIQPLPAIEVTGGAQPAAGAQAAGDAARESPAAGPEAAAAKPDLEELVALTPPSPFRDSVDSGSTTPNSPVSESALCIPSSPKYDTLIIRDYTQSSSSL
The assay is described as follows: [3H]MPEP competition binding on membranes of EBNA cells transfected with human mGlu 5a receptor. Particulars: competition with [3H]MPEP (2 nM), 1 h at 4° C., Ki=IC50/[1+L/Kd]. How it is done: The pharmacological activity of the compounds was tested using the following method: For binding experiments, cDNA encoding human mGlu 5a receptor was transiently transfected into EBNA cells using a procedure described by Schlaeger and Christensen [Cytotechnology 15:1-13 (1998)]. Cell membrane homogenates were stored at −80° C. until the day of assay where upon they were thawed and resuspended and polytronized in 15 mM Tris-HCl, 120 mM NaCl, 100 mM KCl, 25 mM CaCl2, 25 mM MgCl2 binding buffer at pH 7.4 to a final assay concentration of 20 μg protein/well.
Saturation isotherms were determined by addition of twelve [^3H]MPEP concentrations (0.04-100 nM) to these membranes (in a total volume of 200 μl) for 1 h at 4° C. Competition experiments were performed with a fixed concentration of [^3H]MPEP (2 nM) and IC50 values of test compounds evaluated using 11 concentrations (0.3-10,000 nM). Incubations were performed for 1 h at 4° C.
At the end of the incubation, membranes were filtered onto unifilter (96-well white microplate with bonded GF/C filter preincubated 1 h in 0.1% PEI in wash buffer, Packard Bio-Science, Meriden, Conn.) with a Filtermate 96 harvester (Packard BioScience) and washed 3 times with cold 50 mM Tris-HCl, pH 7.4 buffer. Nonspecific binding was measured in the presence of 10 μM MPEP. The radioactivity on the filter was counted (3 min) on a Packard Top-count microplate scintillation counter with quenching correction after addition of 45 μl of microscint 40 (Canberra Packard S.A., Zürich, Switzerland) and shaking for 20 min.
For binding experiments the Ki values of the compounds tested are given. The Ki value is defined by the following formula: Ki=IC50/[1+L/Kd] in which the IC50 values are those concentrations of the compounds tested which cause 50% inhibition of the competing radioligand ([^3H]MPEP). L is the concentration of radioligand used in the binding experiment and the Kd value of the radioligand is empirically determined for each batch of membranes prepared.
A word on the Ki: it is the equilibrium dissociation constant of an inhibitor or competing ligand from its target. With `Cc1nc(C(=O)Nc2cccc(Cl)c2)c(Nc2cccc(CNC(=O)OC(C)(C)C)c2)s1` [Example 145, {3-[4-(3-Chloro-phenylcarbamoyl)-2-methyl-thiazol-5-ylamino]-benzyl}-carbamic acid tert-butyl ester], the Ki came out at 40 nM.
To `Cc1cccc(NC(=O)c2ncsc2Nc2cccnc2)n1` [Example 1, 5-(Pyridin-3-ylamino)-thiazole-4-carboxylic acid (6-methyl-pyridin-2-yl)-amide] belongs 29 nM; to `Cc1cccc(NC(=O)c2ncsc2Nc2c(C)noc2C)n1` [Example 74, 5-(3,5-Dimethyl-isoxazol-4-ylamino)-thiazole-4-carboxylic acid (6-methyl-pyridin-2-yl)-amide], 99 nM; to `O=C(Nc1cccc(Cl)c1)c1ncsc1Nc1cccnc1` [Example 2, 5-(Pyridin-3-ylamino)-thiazole-4-carboxylic acid (3-chloro-phenyl)-amide], 124 nM.
To `Cc1nccc(NC(=O)c2nc(C)sc2Nc2cccc(C(N)=O)c2)n1` [Example 209, 5-(3-Carbamoyl-phenylamino)-2-methyl-thiazole-4-carboxylic acid (2-methyl-pyrimidin-4-yl)-amide] belongs 40 nM.
The same measure for `Cc1csc(NC(=O)c2ncsc2Nc2cccc(C#N)c2)n1` [Example 81, 5-(3-Cyano-phenylamino)-thiazole-4-carboxylic acid (4-methyl-thiazol-2-yl)-amide]: 19 nM; for `Cc1cccc(NC(=O)c2ncsc2Nc2ccccc2)n1` [Example 13, 5-Phenylamino-thiazole-4-carboxylic acid (6-methyl-pyridin-2-yl)-amide]: 26 nM; for `CNc1scnc1C(=O)Nc1cccc(Cl)c1` [Example 24, 5-Methylamino-thiazole-4-carboxylic acid (3-chloro-phenyl)-amide]: 127 nM.
As to `CC(=O)c1cccc(Nc2scnc2C(=O)Nc2cccc(C)n2)c1` [Example 88, 5-(3-Acetyl-phenylamino)-thiazole-4-carboxylic acid (6-methyl-pyridin-2-yl)-amide], the Ki stood at 18 nM.
To `O=C(Nc1cccc(Cl)c1)c1ncsc1NC1CC1` [Example 18, 5-Cyclopropylamino-thiazole-4-carboxylic acid (3-chloro-phenyl)-amide] belongs 458 nM; to `Cc1cccc(NC(=O)c2nc(C)sc2Nc2cccc(S(C)(=O)=O)c2)n1` [Example 149, 5-(3-Methanesulfonyl-phenylamino)-2-methyl-thiazole-4-carboxylic acid (6-methyl-pyridin-2-yl)-amide], 53 nM.

The values above are taken from patent publication US7678815B2, “Thiazole-4-carboxyamide derivatives” (Hoffmann-La Roche Inc., priority 2005, dated 2010).
